In ChEMBL document CHEMBL4811298, “Discovery of novel class of histone deacetylase inhibitors as potential anticancer agents” (Bioorg Med Chem, 2021):
Calls of active or inactive are those of the source. The rule behind the calls is not given here.

Assays:
MCF7 [1] = assay: Upregulation of HDAC1 gene expression in human MCF7 cells at 3 uM incubated for 24 hrs by whole transcriptome analysis; format: functional, cell-based
MCF7 [2] = assay: Upregulation of SIRT7 gene expression in human MCF7 cells at 3 uM incubated for 24 hrs by whole transcriptome analysis; format: functional, cell-based
MCF7 [3] = assay: Upregulation of HDAC7 gene expression in human MCF7 cells at 3 uM incubated for 24 hrs by whole transcriptome analysis; format: functional, cell-based
MCF7 [4] = assay: Upregulation of NFkB2 gene expression in human MCF7 cells at 3 uM incubated for 24 hrs by whole transcriptome analysis; format: functional, cell-based
Histone deacetylase 2 = Histone deacetylase 2 (Homo sapiens, UniProt Q92769); format: cell-based, Sf9
MCF7 [5] = assay: Induction of cell cycle arrest in human MCF7 cells assessed as accumulation at G2/M phase at 1 uM incubated for 24 hrs by PI staining based flow cytometric analysis; format: functional
MCF7 [6] = assay: Induction of cell cycle arrest in human MCF7 cells assessed as accumulation at G1/S phase at 1 uM incubated for 4 hrs by PI staining based flow cytometric analysis; format: functional
MCF7 [7] = assay: Upregulation of SIRT3 gene expression in human MCF7 cells at 3 uM incubated for 24 hrs by whole transcriptome analysis; format: functional, cell-based
MCF7 [8] = assay: Upregulation of SIRT5 gene expression in human MCF7 cells at 3 uM incubated for 24 hrs by whole transcriptome analysis; format: functional, cell-based
MCF7 [9] = assay: Upregulation of HDAC6 gene expression in human MCF7 cells at 3 uM incubated for 24 hrs by whole transcriptome analysis; format: functional, cell-based
MCF7 [10] = assay: Upregulation of HDAC2 gene expression in human MCF7 cells at 3 uM incubated for 24 hrs by whole transcriptome analysis; format: functional, cell-based
MCF7 [11] = assay: Upregulation of c-REL gene expression in human MCF7 cells at 3 uM incubated for 24 hrs by whole transcriptome analysis; format: functional, cell-based
Histone deacetylase 4 = Histone deacetylase 4 (Homo sapiens, UniProt P56524); assay: Inhibition of N-terminal GST-tagged/C-terminal His-tagged human recombinant HDAC4 (627 to 1084 residues) expressed in baculovirus-infected Sf9 cells assessed as reduction in 7-amino-4-methylcoumarin release measured every 5 mins by fluorescence based analysis
[12] = molecular target: Histone deacetylase 3/Nuclear receptor corepressor 2 (HDAC3/NCoR2) (Homo sapiens, UniProt O15379); assay: Inhibition of C-terminal His-tagged human recombinant full length HDAC3 (1 to 428 residues)/N-terminal GST-tagged human recombinant NCOR2 (395 to 489 residues) expressed in baculovirus-infected Sf9 cells assessed as reduction in 7-amino-4-methylcoumarin release using fluorogenic HDAC substrate 3 measured every 5 mins by fluorescence based analysis
MCF7 [13] = assay: Induction of apoptosis in human MCF7 cells assessed as increase in caspase 3/7 activity at 1 to 3 uM measured after 48 hrs by ELISA; format: functional, cell-based; settings: dose 1-3 µM
Histone deacetylase 5 [14] = molecular target: T1, Histone deacetylase 5 (Homo sapiens, UniProt Q9UQL6); assay: Inhibition of N-terminal GST-tagged human recombinant full length HDAC5 expressed in baculovirus-infected Sf9 cells assessed as reduction in 7-amino-4-methylcoumarin release measured every 5 mins by fluorescence based analysis
Histone deacetylase 7 = molecular target: T2, Histone deacetylase 7 (Homo sapiens, UniProt Q8WUI4); assay: Inhibition of N-terminal GST-tagged human HDAC7 (518 to end residues) expressed in baculovirus-infected Sf9 cells assessed as reduction in 7-amino-4-methylcoumarin release measured every 5 mins by fluorescence based analysis
T2 sequence (Q8WUI4 whole entry): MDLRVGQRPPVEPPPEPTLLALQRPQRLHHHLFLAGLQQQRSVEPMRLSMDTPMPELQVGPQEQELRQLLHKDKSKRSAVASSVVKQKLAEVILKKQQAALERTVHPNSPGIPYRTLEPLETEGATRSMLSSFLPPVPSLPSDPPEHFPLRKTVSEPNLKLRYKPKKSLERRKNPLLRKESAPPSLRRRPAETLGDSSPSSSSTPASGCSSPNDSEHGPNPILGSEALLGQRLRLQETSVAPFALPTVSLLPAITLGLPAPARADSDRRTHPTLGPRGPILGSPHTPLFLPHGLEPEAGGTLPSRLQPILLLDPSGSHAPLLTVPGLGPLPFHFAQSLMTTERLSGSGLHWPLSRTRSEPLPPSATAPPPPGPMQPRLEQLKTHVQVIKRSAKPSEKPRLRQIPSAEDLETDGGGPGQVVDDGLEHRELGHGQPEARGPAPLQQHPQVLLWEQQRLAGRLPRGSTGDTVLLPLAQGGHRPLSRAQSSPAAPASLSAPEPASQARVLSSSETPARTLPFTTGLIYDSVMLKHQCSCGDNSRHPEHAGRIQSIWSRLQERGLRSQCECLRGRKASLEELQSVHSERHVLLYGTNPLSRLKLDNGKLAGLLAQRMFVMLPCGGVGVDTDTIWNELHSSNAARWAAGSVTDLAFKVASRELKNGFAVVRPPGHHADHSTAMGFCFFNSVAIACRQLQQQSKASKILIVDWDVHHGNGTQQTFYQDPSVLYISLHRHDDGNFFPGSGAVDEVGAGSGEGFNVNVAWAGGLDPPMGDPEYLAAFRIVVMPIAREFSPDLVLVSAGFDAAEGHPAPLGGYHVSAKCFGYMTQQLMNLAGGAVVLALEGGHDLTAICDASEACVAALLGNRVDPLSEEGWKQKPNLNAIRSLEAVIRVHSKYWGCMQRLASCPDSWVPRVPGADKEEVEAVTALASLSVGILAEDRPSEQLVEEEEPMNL

MCF7 [15] = assay: Induction of cell cycle arrest in human MCF7 cells assessed as accumulation at subG1 phase at 1 uM incubated for 24 to 72 hrs by PI staining based flow cytometric analysis; format: functional; settings: time 24-72 hrs
MCF7 [16] = assay: Upregulation of RELB gene expression in human MCF7 cells at 3 uM incubated for 24 hrs by whole transcriptome analysis; format: functional, cell-based
MCF7 [17] = assay: Upregulation of NFkB1 gene expression in human MCF7 cells at 3 uM incubated for 24 hrs by whole transcriptome analysis; format: functional, cell-based
Histone deacetylase 1 = Histone deacetylase 1 (Homo sapiens, UniProt Q13547); assay: Inhibition of C-terminal FLAG/His-tagged human recombinant HDAC1 (1 to 482 residues) expressed in baculovirus-infected Sf9 cells assessed as reduction in 7-amino-4-methylcoumarin release using fluorogenic HDAC substrate 3 measured every 5 mins by fluorescence based analysis
MCF7 [18] = assay: Upregulation of RELA (p65 ) gene expression in human MCF7 cells at 3 uM incubated for 24 hrs by whole transcriptome analysis; format: functional, cell-based
Histone deacetylase 9 = Histone deacetylase 9 (Homo sapiens, UniProt Q9UKV0); assay: Inhibition of C-terminal His-tagged human HDAC9 (604 to 1066 residues) expressed in baculovirus-infected Sf9 cells assessed as reduction in 7-amino-4-methylcoumarin release measured every 5 mins by fluorescence based analysis
MCF7 [19] = assay: Induction of apoptosis in human MCF7 cells assessed as downregulation of c-Myc protein expression at 1 to 3 uM measured after 48 hrs western blot analysis; format: functional, cell-based; settings: dose 1-3 µM
MCF7 [20] = assay: Upregulation of HDAC3 gene expression in human MCF7 cells at 3 uM incubated for 24 hrs by whole transcriptome analysis; format: functional, cell-based
MCF7 [21] = assay: Upregulation of SIRT2 gene expression in human MCF7 cells at 3 uM incubated for 24 hrs by whole transcriptome analysis; format: functional, cell-based
MCF7 [22] = assay: Upregulation of HDAC11 gene expression in human MCF7 cells at 3 uM incubated for 24 hrs by whole transcriptome analysis; format: functional, cell-based
Histone deacetylase 5 [23] = molecular target: T1, Histone deacetylase 5; assay: Potency index, ratio of vorinostat IC50 to test compound IC50 for Inhibition of N-terminal GST-tagged human recombinant full length HDAC5 expressed in baculovirus-infected Sf9 cells assessed as reduction in 7-amino-4-methylcoumarin release measured every 5 mins by fluorescence based analysis
MCF7 [24] = assay: Upregulation of SIRT1 gene expression in human MCF7 cells at 3 uM incubated for 24 hrs by whole transcriptome analysis; format: functional, cell-based
MCF7 [25] = assay: Upregulation of SIRT6 gene expression in human MCF7 cells at 3 uM incubated for 24 hrs by whole transcriptome analysis; format: functional, cell-based
MCF7 [26] = assay: Upregulation of HDAC10 gene expression in human MCF7 cells at 3 uM incubated for 24 hrs by whole transcriptome analysis; format: functional, cell-based
MCF7 [27] = assay: Upregulation of HDAC4 gene expression in human MCF7 cells at 3 uM incubated for 24 hrs by whole transcriptome analysis; format: functional, cell-based
MCF7 [28] = assay: Upregulation of HDAC5 gene expression in human MCF7 cells at 3 uM incubated for 24 hrs by whole transcriptome analysis; format: functional, cell-based
MCF7 [29] = assay: Upregulation of HDAC8 gene expression in human MCF7 cells at 3 uM incubated for 24 hrs by whole transcriptome analysis; format: functional, cell-based
MCF7 [30] = assay: Upregulation of SIRT4 gene expression in human MCF7 cells at 3 uM incubated for 24 hrs by whole transcriptome analysis; format: functional, cell-based

T1 sequence (Q9UQL6 whole entry): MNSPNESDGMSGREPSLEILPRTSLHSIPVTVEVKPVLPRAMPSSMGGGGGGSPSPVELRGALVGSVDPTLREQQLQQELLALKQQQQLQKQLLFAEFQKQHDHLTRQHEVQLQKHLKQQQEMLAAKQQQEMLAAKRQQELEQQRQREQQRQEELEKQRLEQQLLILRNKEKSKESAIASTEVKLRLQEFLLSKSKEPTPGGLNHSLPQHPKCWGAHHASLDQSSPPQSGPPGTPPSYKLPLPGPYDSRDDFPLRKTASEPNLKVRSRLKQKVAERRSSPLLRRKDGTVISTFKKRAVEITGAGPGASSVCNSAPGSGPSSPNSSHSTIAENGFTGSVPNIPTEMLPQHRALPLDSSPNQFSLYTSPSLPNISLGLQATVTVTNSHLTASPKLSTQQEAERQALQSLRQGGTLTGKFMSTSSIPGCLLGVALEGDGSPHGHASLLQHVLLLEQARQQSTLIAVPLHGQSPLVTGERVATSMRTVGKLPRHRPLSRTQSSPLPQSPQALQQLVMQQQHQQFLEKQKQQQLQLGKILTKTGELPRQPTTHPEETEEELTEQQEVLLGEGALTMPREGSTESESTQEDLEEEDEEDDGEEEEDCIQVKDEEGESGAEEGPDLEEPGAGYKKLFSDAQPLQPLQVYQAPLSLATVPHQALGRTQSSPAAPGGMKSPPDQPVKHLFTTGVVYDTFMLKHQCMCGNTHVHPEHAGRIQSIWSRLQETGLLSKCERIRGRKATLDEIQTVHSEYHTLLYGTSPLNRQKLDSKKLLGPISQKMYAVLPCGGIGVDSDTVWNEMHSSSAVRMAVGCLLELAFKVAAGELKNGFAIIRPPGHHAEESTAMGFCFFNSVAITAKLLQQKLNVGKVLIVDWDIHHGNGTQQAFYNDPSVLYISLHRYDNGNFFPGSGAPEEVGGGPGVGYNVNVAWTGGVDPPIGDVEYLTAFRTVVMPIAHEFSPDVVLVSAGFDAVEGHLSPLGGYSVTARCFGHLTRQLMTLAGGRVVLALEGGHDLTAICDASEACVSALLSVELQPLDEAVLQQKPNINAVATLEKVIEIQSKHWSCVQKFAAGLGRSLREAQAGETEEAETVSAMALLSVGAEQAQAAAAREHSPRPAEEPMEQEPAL
Sequence of Histone deacetylase 2 (Q92769 whole entry): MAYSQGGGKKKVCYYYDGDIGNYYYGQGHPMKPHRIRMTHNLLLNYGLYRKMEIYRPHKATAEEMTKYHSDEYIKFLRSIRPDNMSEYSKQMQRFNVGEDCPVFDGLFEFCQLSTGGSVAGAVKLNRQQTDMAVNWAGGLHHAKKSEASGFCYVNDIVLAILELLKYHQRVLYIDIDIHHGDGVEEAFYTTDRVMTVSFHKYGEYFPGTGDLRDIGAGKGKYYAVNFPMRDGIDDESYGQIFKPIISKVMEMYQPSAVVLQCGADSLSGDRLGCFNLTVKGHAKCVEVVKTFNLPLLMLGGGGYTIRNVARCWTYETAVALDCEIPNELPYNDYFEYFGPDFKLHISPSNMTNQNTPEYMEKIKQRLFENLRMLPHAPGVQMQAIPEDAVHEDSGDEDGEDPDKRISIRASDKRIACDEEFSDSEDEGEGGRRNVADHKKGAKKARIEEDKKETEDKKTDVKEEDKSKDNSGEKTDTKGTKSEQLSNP
Sequence of Histone deacetylase 9 (Q9UKV0 whole entry, the tested form may be a part): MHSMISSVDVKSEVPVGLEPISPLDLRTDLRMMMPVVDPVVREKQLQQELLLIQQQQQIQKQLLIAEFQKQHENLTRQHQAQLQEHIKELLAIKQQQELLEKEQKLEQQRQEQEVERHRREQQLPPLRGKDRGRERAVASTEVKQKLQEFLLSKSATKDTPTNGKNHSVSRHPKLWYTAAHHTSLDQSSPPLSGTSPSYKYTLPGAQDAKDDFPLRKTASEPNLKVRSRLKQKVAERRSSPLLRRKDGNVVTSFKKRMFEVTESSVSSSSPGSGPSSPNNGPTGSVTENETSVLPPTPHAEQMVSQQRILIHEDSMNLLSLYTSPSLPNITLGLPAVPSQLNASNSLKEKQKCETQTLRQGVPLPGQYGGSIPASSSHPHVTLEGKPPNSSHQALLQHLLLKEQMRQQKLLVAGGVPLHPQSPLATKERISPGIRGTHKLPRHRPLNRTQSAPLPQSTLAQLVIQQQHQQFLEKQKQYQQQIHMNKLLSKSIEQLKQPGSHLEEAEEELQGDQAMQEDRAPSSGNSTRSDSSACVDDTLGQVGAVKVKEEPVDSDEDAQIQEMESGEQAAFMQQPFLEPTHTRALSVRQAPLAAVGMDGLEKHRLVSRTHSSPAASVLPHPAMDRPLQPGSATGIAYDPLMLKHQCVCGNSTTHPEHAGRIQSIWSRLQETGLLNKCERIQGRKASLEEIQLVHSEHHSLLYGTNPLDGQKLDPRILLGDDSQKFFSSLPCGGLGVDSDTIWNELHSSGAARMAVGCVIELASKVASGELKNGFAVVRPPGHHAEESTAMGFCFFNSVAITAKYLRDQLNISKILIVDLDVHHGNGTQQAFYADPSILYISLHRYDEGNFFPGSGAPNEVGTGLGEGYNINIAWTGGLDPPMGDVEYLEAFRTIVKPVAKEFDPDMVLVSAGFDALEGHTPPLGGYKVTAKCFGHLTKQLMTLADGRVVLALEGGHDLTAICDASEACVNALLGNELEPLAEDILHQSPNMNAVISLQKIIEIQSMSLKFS
Sequence of Histone deacetylase 1 (Q13547 whole entry, the tested form may be a part): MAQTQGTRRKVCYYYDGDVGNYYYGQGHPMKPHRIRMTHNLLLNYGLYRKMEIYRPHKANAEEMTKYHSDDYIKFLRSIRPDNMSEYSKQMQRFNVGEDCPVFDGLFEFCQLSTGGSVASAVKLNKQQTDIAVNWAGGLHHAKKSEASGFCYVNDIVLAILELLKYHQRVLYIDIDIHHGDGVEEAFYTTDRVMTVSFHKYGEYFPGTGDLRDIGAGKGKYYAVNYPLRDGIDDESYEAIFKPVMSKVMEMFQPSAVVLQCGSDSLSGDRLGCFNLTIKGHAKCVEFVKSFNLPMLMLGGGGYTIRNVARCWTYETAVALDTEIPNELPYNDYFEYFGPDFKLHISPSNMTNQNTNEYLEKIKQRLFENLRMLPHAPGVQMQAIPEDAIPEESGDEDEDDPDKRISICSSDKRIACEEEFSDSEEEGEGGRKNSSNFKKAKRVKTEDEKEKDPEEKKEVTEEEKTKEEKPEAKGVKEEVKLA
Sequence of Histone deacetylase 4 (P56524 whole entry, the tested form may be a part): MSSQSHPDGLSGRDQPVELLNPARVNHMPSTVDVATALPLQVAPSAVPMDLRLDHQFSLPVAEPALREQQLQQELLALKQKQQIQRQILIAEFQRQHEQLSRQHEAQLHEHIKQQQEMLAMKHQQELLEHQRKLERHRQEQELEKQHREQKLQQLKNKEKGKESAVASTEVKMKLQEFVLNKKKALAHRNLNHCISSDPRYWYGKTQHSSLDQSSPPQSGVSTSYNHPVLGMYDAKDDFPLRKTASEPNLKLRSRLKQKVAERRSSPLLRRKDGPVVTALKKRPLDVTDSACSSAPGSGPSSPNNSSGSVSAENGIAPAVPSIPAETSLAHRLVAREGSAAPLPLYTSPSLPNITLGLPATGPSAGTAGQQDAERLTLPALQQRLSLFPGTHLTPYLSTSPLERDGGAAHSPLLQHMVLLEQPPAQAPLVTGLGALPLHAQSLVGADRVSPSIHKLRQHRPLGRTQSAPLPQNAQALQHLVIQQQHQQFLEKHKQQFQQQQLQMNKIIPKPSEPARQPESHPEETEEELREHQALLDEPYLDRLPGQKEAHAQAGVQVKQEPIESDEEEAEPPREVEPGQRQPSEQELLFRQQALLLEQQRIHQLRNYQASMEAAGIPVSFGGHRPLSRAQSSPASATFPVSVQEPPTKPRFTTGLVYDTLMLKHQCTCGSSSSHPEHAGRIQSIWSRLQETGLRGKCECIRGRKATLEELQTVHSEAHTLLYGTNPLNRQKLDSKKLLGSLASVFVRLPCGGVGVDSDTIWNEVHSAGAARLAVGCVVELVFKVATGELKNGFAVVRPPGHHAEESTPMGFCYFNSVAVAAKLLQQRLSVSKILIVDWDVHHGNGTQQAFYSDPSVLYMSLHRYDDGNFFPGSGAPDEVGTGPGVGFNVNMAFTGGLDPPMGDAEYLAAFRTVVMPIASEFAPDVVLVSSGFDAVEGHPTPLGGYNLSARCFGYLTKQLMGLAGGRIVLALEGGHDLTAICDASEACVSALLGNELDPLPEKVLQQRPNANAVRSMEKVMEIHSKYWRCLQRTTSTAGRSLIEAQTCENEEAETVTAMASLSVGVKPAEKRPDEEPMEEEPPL

## CC(C)(C)Nc1c(-c2cccc(-c3nc4cc(-c5noc(C(F)(F)F)n5)ccc4[nH]3)c2)nc2cnccn12
MCF7 [1]
  Activity: Active
MCF7 [2]
  Activity: Active
MCF7 [3]
  Activity: Active
MCF7 [4]
  Activity: Active
Histone deacetylase 2
  IC50: > 10 µM
MCF7 [5]
  Activity: Active
MCF7 [6]
  Activity: Active
MCF7 [7]
  Activity: Active
MCF7 [8]
  Activity: Active
MCF7 [9]
  Activity: Active
MCF7 [10]
  Activity: Active
MCF7 [11]
  Activity: Active
Histone deacetylase 4
  IC50: 8 µM
[12]
  IC50: > 10 µM
MCF7 [13]
  Activity: Active
Histone deacetylase 5 [14]
  IC50: 0.307 µM
Histone deacetylase 7
  IC50: > 10 µM
MCF7 [15]
  Activity: Active
MCF7 [16]
  Activity: Active
MCF7 [17]
  Activity: Active
Histone deacetylase 1
  IC50: > 10 µM
MCF7 [18]
  Activity: Active
Histone deacetylase 9
  IC50: > 10 µM
MCF7 [19]
  Activity: Active
MCF7 [20]
  Activity: Active
MCF7 [21]
  Activity: Active
MCF7 [22]
  Activity: Active
Histone deacetylase 5 [23]
  Ratio IC50: > 33
MCF7 [24]
  Activity: Active
MCF7 [25]
  Activity: Active
MCF7 [26]
  Activity: Active
MCF7 [27]
  Activity: Active
MCF7 [28]
  Activity: Active
MCF7 [29]
  Activity: Active
MCF7 [30]
  Activity: Active
